Assay results published in patent US9498450B2, “1-aminocyclohexane derivatives for the treatment of cochlear tinnitus” (MERZ PHARMA GmbH & CO. KGaA, priority 2007, dated 2016).

System: subjects with subjective tinnitus of at least moderate severity
Assay: Double blind placebo controlled pilot trial of neramexane for treatment of tinnitus (TBF-12/THF-12 total score)
Format: in vivo, human
Details: for Change in TBF-12 total score, Week 16 Neramexane-Placebo LSMean / TBF-12 total score, Change LSMean / TBF-12 total score, Neramexane-Placebo LSMean Diff. ± SE / TBF-12 total score, Week 16 Change Mean ± SD / TBF-12 total score, Week 16 Actual Mean ± SD: ITT-LOCF; for TBF-12 total score, Change LSMean / TBF-12 total score, Neramexane-Placebo LSMean Diff. ± SE / TBF-12 total score, Week 16 Change Mean ± SD: baseline to week 16; for improvement as compared to placebo treatment (difference): 50 mg dose group
Procedure: Visit 1 (screening): After signing the consent form, the subject underwent a physical examination and clinical laboratory testing. Patient eligibility for the study was evaluated via a check of inclusion/exclusion criteria. An initial Tinnitus Interview was conducted. The subject also completed a Tinnitus-Beeinträchtigungs-Fragebogen (THF-12) (i.e., a 12-item German modified and validated version (Greimel K V et al., Tinnitus-Beeinträchtigungs-Fragebogen (THF-12). Manual. Frankfurt am Main: Swets & Zeitlinger B. V.; 2000) of the 25-item Tinnitus Handicap Inventory or THI (Newman C W, et al. Development of the Tinnitus Handicap Inventory. Arch Otolaryngol Head Neck Surg 1996; 122(2): 143-148; Newman C W, et al. Psychometric adequacy of the Tinnitus Handicap Inventory (THI) for evaluating treatment outcome. J Am Acad Audiol 1998; 9(2): 153-160.)), a Hospital Anxiety and Depression Scale—Depression Subscale (HADS-D) Questionnaire and a Hyperacusis (Geräuschüberempfindlichkeit-Fragenbogen (GÜF)) Questionnaire (if applicable).
Visit 2 (baseline): The subject was asked about adverse events and changes in concomitant medication/disease, which events/changes were documented. The subject was evaluated for study eligibility based on a review of the inclusion/exclusion criteria. Trial procedures as well as allowed and forbidden concomitant medications were reviewed with the subject. An initial Tinnitus Interview was conducted. The subject also completed a THF-12, HADS-D Questionnaire and GÜF Questionnaire (if applicable). The subject was enrolled in the study and study medication (placebo or neramexane) was dispensed as described below.
Visit 6 (Week 16, end of treatment): This visit occurred at the end of the 12-week fixed-dose double-blind treatment period. The subject was asked about adverse events and changes in concomitant medication/disease, which changes are documented. A clinical laboratory evaluation was performed. A follow-up Tinnitus Interview was conducted, and the subject completed a THF-12, HADS-D Questionnaire and GÜF Questionnaire (if applicable). Pure-tone audiometry (air conduction) was also conducted.
Primary Outcome • The change in THF-12 total score from baseline (Visit 2) to the endpoint visit (Visit 6, i.e. Week 16) was the primary efficacy endpoint in this study.
All efficacy analyses were performed on the ITT population using the last-observation-carried-forward (LOCF) approach. For sensitivity purposes an analysis of the per-protocol set and of observed cases was performed additionally. All statistical tests used for testing the primary efficacy (confirmatory testing) and secondary efficacy criteria (exploratory), and all other statistical tests used for exploratory analyses were two-sided hypothesis tests performed at the 5% significance level. For all variables standard descriptive statistics were calculated.
Change from baseline (Visit 2) to Week 16 in THF-12 total score was analyzed using a two-way ANCOVA model with treatment group and study centers as factors and baseline THF-12 total score as covariate. […]

[1] = 25 mg/d, subjects with mild hearing loss
[2] = 25 mg/d, subjects with tinnitus duration 3 to <8 months
[3] = 25 mg/d, total study population
[4] = 50 mg/d, subjects with mild hearing loss
[5] = 50 mg/d, subjects with tinnitus duration 3 to <8 months
[6] = 50 mg/d, total study population
[7] = 75 mg/d, subjects with mild hearing loss
[8] = 75 mg/d, subjects with tinnitus duration 3 to <8 months
[9] = 75 mg/d, total study population

CC1(C)CC(C)(C)CC(C)(N)C1 [Neramexane, 1-amino-1,3,3,5,5-pentamethylcyclohexane]
Change in TBF-12 total score, Week 16 Neramexane-Placebo LSMean (25 mg/d, HADS-D Anxiety subscale 0-7 at baseline): 0.2 | Change in TBF-12 total score, Week 16 Neramexane-Placebo LSMean (25 mg/d, HADS-D Anxiety subscale 8-10 at baseline): −2.3 | Change in TBF-12 total score, Week 16 Neramexane-Placebo LSMean (25 mg/d, HADS-D Anxiety subscale >10 at baseline): 2.3 | Change in TBF-12 total score, Week 16 Neramexane-Placebo LSMean (25 mg/d, HADS-D Depression subscale 0-7 at baseline): −0.3 | Change in TBF-12 total score, Week 16 Neramexane-Placebo LSMean (25 mg/d, HADS-D Depression subscale 8-10 at baseline): 0.6 | Change in TBF-12 total score, Week 16 Neramexane-Placebo LSMean (25 mg/d, HADS-D Depression subscale >10 at baseline): 3.9 | TBF-12 total score, Change LSMean [1]: −1.3 | TBF-12 total score, Neramexane-Placebo LSMean Diff. ± SE [1]: 0.7 ± 0.9 | TBF-12 total score, Week 16 Change Mean ± SD [1]: −1.5 ± 3.4 | TBF-12 total score, Week 16 Actual Mean ± SD (25 mg/d, subjects with mild hearing loss, score range 0-24): 13.1 ± 5.8 | TBF-12 total score, Change LSMean [2]: −2.2 | TBF-12 total score, Neramexane-Placebo LSMean Diff. ± SE [2]: 0.0 ± 0.8 | TBF-12 total score, Week 16 Change Mean ± SD [2]: −2.5 ± 3.0 | TBF-12 total score, Change LSMean [3]: −1.8 | TBF-12 total score, Neramexane-Placebo LSMean Diff. ± SE [3]: 0.5 ± 0.5 | TBF-12 total score, Week 16 Change Mean ± SD [3]: −2.0 ± 3.4 | improvement as compared to placebo treatment (difference) (patients who showed a mild hearing loss, post-hoc p=0.024): −1.9 points | improvement as compared to placebo treatment (difference) (patients whose onset of tinnitus was three to eight months before treatment, post-hoc p=0.019): −1.9 points | Change in TBF-12 total score, Week 16 Neramexane-Placebo LSMean (50 mg/d, HADS-D Anxiety subscale 0-7 at baseline): −0.5 | Change in TBF-12 total score, Week 16 Neramexane-Placebo LSMean (50 mg/d, HADS-D Anxiety subscale 8-10 at baseline): −2.9 | Change in TBF-12 total score, Week 16 Neramexane-Placebo LSMean (50 mg/d, HADS-D Anxiety subscale >10 at baseline): 0.6 | Change in TBF-12 total score, Week 16 Neramexane-Placebo LSMean (50 mg/d, HADS-D Depression subscale 0-7 at baseline): −1.3 | Change in TBF-12 total score, Week 16 Neramexane-Placebo LSMean (50 mg/d, HADS-D Depression subscale 8-10 at baseline): −1.1 | Change in TBF-12 total score, Week 16 Neramexane-Placebo LSMean (50 mg/d, HADS-D Depression subscale >10 at baseline): 3.3 | TBF-12 total score, Change LSMean [4]: −3.9 | TBF-12 total score, Neramexane-Placebo LSMean Diff. ± SE [4]: −1.9 ± 0.8 | TBF-12 total score, Week 16 Change Mean ± SD [4]: −3.8 ± 3.9 | TBF-12 total score, Week 16 Actual Mean ± SD (50 mg/d, subjects with mild hearing loss, score range 0-24): 11.5 ± 5.2 | TBF-12 total score, Change LSMean [5]: −4.0 | TBF-12 total score, Neramexane-Placebo LSMean Diff. ± SE [5]: −1.9 ± 0.8 | TBF-12 total score, Week 16 Change Mean ± SD [5]: −4.2 ± 3.9 | TBF-12 total score, Week 16 Actual Mean ± SD (50 mg/d, subjects with tinnitus duration 3 to <8 months, score range 0-24): 10.0 ± 5.1 | TBF-12 total score, Change LSMean [6]: −3.1 | TBF-12 total score, Neramexane-Placebo LSMean Diff. ± SE [6]: −0.8 ± 0.5 | TBF-12 total score, Week 16 Change Mean ± SD [6]: −3.2 ± 4.1 | Change in TBF-12 total score, Week 16 Neramexane-Placebo LSMean (75 mg/d, HADS-D Anxiety subscale 0-7 at baseline): 0.1 | Change in TBF-12 total score, Week 16 Neramexane-Placebo LSMean (75 mg/d, HADS-D Anxiety subscale 8-10 at baseline): −3.1 | Change in TBF-12 total score, Week 16 Neramexane-Placebo LSMean (75 mg/d, HADS-D Anxiety subscale >10 at baseline): 0.3 | Change in TBF-12 total score, Week 16 Neramexane-Placebo LSMean (75 mg/d, HADS-D Depression subscale 0-7 at baseline): −0.9 | Change in TBF-12 total score, Week 16 Neramexane-Placebo LSMean (75 mg/d, HADS-D Depression subscale 8-10 at baseline): 0.0 | Change in TBF-12 total score, Week 16 Neramexane-Placebo LSMean (75 mg/d, HADS-D Depression subscale >10 at baseline): 0.4 | TBF-12 total score, Change LSMean [7]: −1.8 | TBF-12 total score, Neramexane-Placebo LSMean Diff. ± SE [7]: −0.2 ± 0.9 | TBF-12 total score, Week 16 Change Mean ± SD [7]: −1.9 ± 3.2 | TBF-12 total score, Week 16 Actual Mean ± SD (75 mg/d, subjects with mild hearing loss, score range 0-24): 12.0 ± 4.6 | TBF-12 total score, Change LSMean [8]: −3.3 | TBF-12 total score, Neramexane-Placebo LSMean Diff. ± SE [8]: −1.1 ± 0.8 | TBF-12 total score, Week 16 Change Mean ± SD [8]: −3.4 ± 4.0 | TBF-12 total score, Week 16 Actual Mean ± SD (75 mg/d, subjects with tinnitus duration 3 to <8 months, score range 0-24): 10.6 ± 5.0 | TBF-12 total score, Week 16 Actual Mean ± SD [9]: 11.0 ± 5.1 | TBF-12 total score, Change LSMean [9]: −2.8 | TBF-12 total score, Neramexane-Placebo LSMean Diff. ± SE [9]: −0.5 ± 0.5 | TBF-12 total score, Week 16 Change Mean ± SD [9]: −2.9 ± 3.9 | benefit compared to patients with HADS score below 10 at baseline (50 or 75 mg daily dose monotherapy, patients with HADS total score of 10 or more at baseline): weaker benefit | response (effect in treating tinnitus) compared to total study population (patients treated within three to eight months of onset of tinnitus and patients with mild hearing loss): better response | response to treatment (subgroup analysis) (subjects classified by investigators as suffering from cochlear tinnitus): responded well
